Test system: 885512-296-R-J2-PDC complex spheroid viability
Assay: Anticancer human tumor 885512-296-R-J2-PDC patient-derived breast carcinoma cell line growth inhibition [GQUAD]
Details: for IC50: curve of first compound; for viability, T/C: stronger effect = lower value
Method in brief: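 Viability of tumor cells grown as complex spheroids with endothelial and stromal cells, exposed to drug combinations. Top concentration at or near clinical Cmax (else 10 microM), diluted in half-log increments.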

[1] = second compound 0.0316 µM, first compound 0.0316 µM
[2] = second compound 0.0316 µM, first compound 0.1 µM
[3] = second compound 0.0316 µM, first compound 0.316 µM
[4] = second compound 0.0316 µM, first compound 1 µM
[5] = second compound 0.0316 µM, first compound 3.16 µM
[6] = second compound 0.0316 µM, first compound 10 µM
[7] = second compound 0.1 µM, first compound 0.0316 µM
[8] = second compound 0.1 µM, first compound 0.1 µM
[9] = second compound 0.1 µM, first compound 0.316 µM
[10] = second compound 0.1 µM, first compound 1 µM
[11] = second compound 0.1 µM, first compound 3.16 µM
[12] = second compound 0.1 µM, first compound 10 µM
[13] = second compound 0.316 µM, first compound 0.0316 µM
[14] = second compound 0.316 µM, first compound 0.1 µM
[15] = second compound 0.316 µM, first compound 0.316 µM
[16] = second compound 0.316 µM, first compound 1 µM
[17] = second compound 0.316 µM, first compound 3.16 µM
[18] = second compound 0.316 µM, first compound 10 µM
[19] = second compound 1 µM, first compound 0.0316 µM
[20] = second compound 1 µM, first compound 0.1 µM
[21] = second compound 1 µM, first compound 0.316 µM
[22] = second compound 1 µM, first compound 1 µM
[23] = second compound 1 µM, first compound 3.16 µM
[24] = second compound 1 µM, first compound 10 µM
[25] = second compound 3.16 µM, first compound 0.0316 µM
[26] = second compound 3.16 µM, first compound 0.1 µM
[27] = second compound 3.16 µM, first compound 0.316 µM
[28] = second compound 3.16 µM, first compound 1 µM
[29] = second compound 3.16 µM, first compound 3.16 µM
[30] = second compound 3.16 µM, first compound 10 µM
[31] = second compound 10 µM, first compound 0.0316 µM
[32] = second compound 10 µM, first compound 0.1 µM
[33] = second compound 10 µM, first compound 0.316 µM
[34] = second compound 10 µM, first compound 1 µM
[35] = second compound 10 µM, first compound 3.16 µM
[36] = second compound 10 µM, first compound 10 µM
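Further: spheroids exposed to the compounds for one week.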
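Wherever viability, T/C is given: percent of tumor spheroid viability relative to DMSO vehicle control wells.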

In the case of COc1cc(C2c3cc4c(cc3C(OC3OC5COC(C)OC5C(O)C3O)C3COC(=O)C23)OCO4)cc(OC)c1O (stereo unspecified) + Cc1cnc(CNC(=O)c2c(=O)c3ccc(N4CCCN(C)CC4)nc3n3c2sc2ccccc23)cn1, the IC50 (second compound 0.0316 µM) is reported as 318 nM, the IC50 (second compound 0.1 µM) is reported as 187 nM and the IC50 (second compound 0.316 µM) is reported as under 31.6 nM. For the same compound, the IC50 (second compound 1 µM) was under 31.6 nM, the IC50 (second compound 3.16 µM) was under 31.6 nM and the IC50 (second compound 10 µM) was under 31.6 nM. It also gave a viability, T/C [1] of 80.8%, a viability, T/C [2] of 81% and a viability, T/C [3] of 48%. The viability, T/C [4] was 22.8%, the viability, T/C [5] was 13.4% and the viability, T/C [6] was 10.5%. For the same compound, the viability, T/C [7] was 57.2%, the viability, T/C [8] was 55.8% and the viability, T/C [9] was 45%. It also gave a viability, T/C [10] of 28%, a viability, T/C [11] of 13.7% and a viability, T/C [12] of 11.4%. The viability, T/C [13] was 26%, the viability, T/C [14] was 34.3% and the viability, T/C [15] was 23.3%. For the same compound, the viability, T/C [16] was 24.1%, the viability, T/C [17] was 16.4% and the viability, T/C [18] was 8.65%. It also gave a viability, T/C [19] of 29%, a viability, T/C [20] of 21.8% and a viability, T/C [21] of 23.6%. The viability, T/C [22] was 21.1%, the viability, T/C [23] was 21.3% and the viability, T/C [24] was 14.2%. For the same compound, the viability, T/C [25] was 34%, the viability, T/C [26] was 28.4% and the viability, T/C [27] was 29.6%. It also gave a viability, T/C [28] of 23.5%, a viability, T/C [29] of 22.3% and a viability, T/C [30] of 17.7%. The viability, T/C [31] was 0.09%, the viability, T/C [32] was 0.17% and the viability, T/C [33] was 0.18%. The viability, T/C [34] was 0.15%, the viability, T/C [35] was 0.16% and the viability, T/C [36] was 0.18%.

Work on COc1cccc2c1C(=O)c1c(O)c3c(c(O)c1C2=O)CC(O)(C(=O)CO)CC3OC1CC(N)C(O)C(C)O1 (stereo unspecified) + Cc1cnc(CNC(=O)c2c(=O)c3ccc(N4CCCN(C)CC4)nc3n3c2sc2ccccc23)cn1 yielded an IC50 (second compound 0.0316 µM) of 60.1 nM, an IC50 (second compound 0.1 µM) of under 31.6 nM and an IC50 (second compound 0.316 µM) of under 31.6 nM. It also gave an IC50 (second compound 1 µM) of under 31.6 nM, an IC50 (second compound 3.16 µM) of under 31.6 nM and an IC50 (second compound 10 µM) of under 31.6 nM. It also gave a viability, T/C [1] of 71%, a viability, T/C [2] of 30.1% and a viability, T/C [3] of 21.9%. The viability, T/C [4] was 4.72%, the viability, T/C [5] was 0.41% and the viability, T/C [6] was 2.74%. For the same compound, the viability, T/C [7] was 50.4%, the viability, T/C [8] was 27.2% and the viability, T/C [9] was 20.9%. The viability, T/C [10] was 10.3%, the viability, T/C [11] was 0.59% and the viability, T/C [12] was 2.89%. For the same compound, the viability, T/C [13] was 28.2%, the viability, T/C [14] was 23.7% and the viability, T/C [15] was 18.5%. The viability, T/C [16] was 8.18%, the viability, T/C [17] was 0.4% and the viability, T/C [18] was 1.91%. For the same compound, the viability, T/C [19] was 19.8%, the viability, T/C [20] was 25.2% and the viability, T/C [21] was 13.7%. The viability, T/C [22] was 3.8%, the viability, T/C [23] was 0.09% and the viability, T/C [24] was 0.32%. For the same compound, the viability, T/C [25] was 26.7%, the viability, T/C [26] was 25.6% and the viability, T/C [27] was 15.1%. For the same compound, the viability, T/C [28] was 0.12%, the viability, T/C [29] was 0.12% and the viability, T/C [30] was 0.15%. It also gave a viability, T/C [31] of 0.07%, a viability, T/C [32] of 0.14% and a viability, T/C [33] of 0.22%. For the same compound, the viability, T/C [34] was 0.15%, the viability, T/C [35] was 0.2% and the viability, T/C [36] was 0.21%.

For Nc1ccn(C2OC(CO)C(O)C2(F)F)c(=O)n1 (stereo unspecified) + Cc1cnc(CNC(=O)c2c(=O)c3ccc(N4CCCN(C)CC4)nc3n3c2sc2ccccc23)cn1, the IC50 (second compound 0.0316 µM) was under 31.6 nM, the IC50 (second compound 0.1 µM) was under 31.6 nM and the IC50 (second compound 0.316 µM) was under 31.6 nM. For the same compound, the IC50 (second compound 1 µM) was under 31.6 nM, the IC50 (second compound 3.16 µM) was under 31.6 nM and the IC50 (second compound 10 µM) was under 31.6 nM. It also gave a viability, T/C [1] of 11.4%, a viability, T/C [2] of 3.66% and a viability, T/C [3] of 4.41%. It also gave a viability, T/C [4] of 3.92%, a viability, T/C [5] of 3.56% and a viability, T/C [6] of 4.33%. The viability, T/C [7] was 8.53%, the viability, T/C [8] was 4.24% and the viability, T/C [9] was 3.88%. For the same compound, the viability, T/C [10] was 5.21%, the viability, T/C [11] was 4.05% and the viability, T/C [12] was 3.9%. The viability, T/C [13] was 8.35%, the viability, T/C [14] was 8.14% and the viability, T/C [15] was 5.18%. It also gave a viability, T/C [16] of 2.76%, a viability, T/C [17] of 5.29% and a viability, T/C [18] of 4.05%. It also gave a viability, T/C [19] of 9.41%, a viability, T/C [20] of 7.02% and a viability, T/C [21] of 3.55%. It also gave a viability, T/C [22] of 3.31%, a viability, T/C [23] of 4.27% and a viability, T/C [24] of 3.59%. It also gave a viability, T/C [25] of 4.08%, a viability, T/C [26] of 0.41% and a viability, T/C [27] of 0.15%. It also gave a viability, T/C [28] of 0.1%, a viability, T/C [29] of 0.12% and a viability, T/C [30] of 0.14%. It also gave a viability, T/C [31] of 0.09%, a viability, T/C [32] of 0.15% and a viability, T/C [33] of 0.14%. For the same compound, the viability, T/C [34] was 0.11%, the viability, T/C [35] was 0.15% and the viability, T/C [36] was 0.16%.
